Key:
SR-B1 = molecular target: T1, SR-B1 (Mus musculus, UniProt Q61009); assay: Cholesterol uptake assay (Example 4), [3H]-cholesterol, CHO cells expressing SR-B1; assay type: cell-based; conditions: 10 μM ezetimibe
T1 construct: expressed in transfected cells; host or cells: CHO cells
T1 sequence (Q61009 1-509): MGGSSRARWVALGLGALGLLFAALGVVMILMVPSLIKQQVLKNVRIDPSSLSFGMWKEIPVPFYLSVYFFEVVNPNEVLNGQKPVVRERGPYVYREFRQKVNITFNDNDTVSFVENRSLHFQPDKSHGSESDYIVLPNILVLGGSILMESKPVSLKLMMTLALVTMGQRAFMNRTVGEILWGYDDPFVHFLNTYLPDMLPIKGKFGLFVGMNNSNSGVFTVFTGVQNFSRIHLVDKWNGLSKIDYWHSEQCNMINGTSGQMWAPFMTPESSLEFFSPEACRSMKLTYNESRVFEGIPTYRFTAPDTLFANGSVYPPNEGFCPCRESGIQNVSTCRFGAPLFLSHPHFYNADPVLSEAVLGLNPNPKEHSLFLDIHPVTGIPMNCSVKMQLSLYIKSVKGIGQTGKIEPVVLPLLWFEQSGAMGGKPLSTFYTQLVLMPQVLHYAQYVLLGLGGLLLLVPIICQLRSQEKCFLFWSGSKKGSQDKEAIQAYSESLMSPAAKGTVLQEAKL
Text: The cells were harvested and the lipids were organically extracted. The extracted lipids were spotted on thin-layer chromatography (TLC) plates and resolved within an organic vapor phase. The free cholesterol bands for each assay were isolated and counted in a scintillation counter.

cholesterol absorption = assay: Cholesterol absorption in mice, dual fecal isotope ratio method (cholesterol/sitostanol) (Example 24); assay type: in vivo, mouse; conditions: chow diet
Procedure: Cholesterol absorption in the mice was determined by the dual fecal isotope ratio method as described by Altmann et al. (Biochim. Biophys. Acta. 1580(1):77–93 (2002)). […] Mice were gavaged with ^14C-cholesterol (1 μCi, 0.1 mg unlabeled cholesterol) and ^3H-sitostanol (2 μCi) in 0.1 ml corn oil. Feces were collected for 2 days and fecal ^14C-cholesterol and ^3H-sitostanol levels were determined by combustion in a Packard Oxidizer. The fraction of cholesterol absorbed, as evaluated by the fecal dual isotope technique, was similar in wild type (+/+) and heterozygous mice (+/−) fed a chow diet (heterozygous mice absorbed 46±5% and age matched wild type mice absorbed 51±3% of the dose of ^14C-cholesterol).

rat NPC1L1 = molecular target: T2, rat NPC1L1 (Rattus norvegicus, UniProt Q6T3U3); assay: FACS analysis of BODIPY-labeled ezetimibe binding, rNPC1L1/CHO; conditions: 100 nM BODIPY-labeled ezetimibe
T2 construct: using clone specific PCR primers to generate the ORF flanked by appropriate restriction sites; expressed in transfected cells
Procedure: (§1) “BODIPY” is a fluorescent group which was used to detect the BODIPY-ezetimibe. Chinese hamster ovary (CHO) cells were transiently transfected with rat NPC1L1 DNA (rNPC1L1/CHO), mouse NPC1L1 DNA (mNPC1L1/CHO), mouse SR-B1 DNA (mSRBI/CHO) or EGFP DNA (EGFP/CHO). EGFP is enhanced green fluorescent protein which was used as a positive control. […] Control experiments were also performed wherein the cells were not labeled with the BODIPY-ezetimibe and wherein untransfected CHO cells were labeled with the BODIPY-ezetimibe.

mouse NPC1L1 = molecular target: T3, mouse NPC1L1 (Mus musculus, UniProt Q6T3U4); assay: FACS analysis of BODIPY-labeled ezetimibe binding, mNPC1L1/CHO; conditions: 100 nM BODIPY-labeled ezetimibe
T3 construct: using clone specific PCR primers to generate the ORF flanked by appropriate restriction sites; expressed in transfected cells
Procedure: as §1

mouse SR-B1 = molecular target: T4, mouse SR-B1 (Mus musculus, UniProt Q61009); assay: FACS analysis of BODIPY-labeled ezetimibe binding, mSRBI/CHO; conditions: 100 nM BODIPY-labeled ezetimibe
T4 construct: expressed in transfected cells
T4 sequence (Q61009 1-509): T1 sequence (Q61009 1-509)
Procedure: as §1

untransfected CHO cells = assay: FACS analysis of BODIPY-labeled ezetimibe binding, untransfected CHO cells; design: species or system chinese hamster; conditions: 100 nM BODIPY-labeled ezetimibe
Procedure: as §1

Molecule | [3H]-cholesterol uptake (SR-B1) | fraction of cholesterol absorbed (of the dose of 14C-cholesterol) (cholesterol absorption; NPC1L1 knockout mice (−/−), ezetimibe 10 mg/kg/day) | fraction of cholesterol absorbed (of the dose of 14C-cholesterol) (cholesterol absorption; wild type mice, ezetimibe 10 mg/kg daily) | staining of cells (FACS) (rat NPC1L1) | staining of cells (FACS) (mouse NPC1L1) | staining of cells (FACS) (mouse SR-B1) | staining of cells (FACS) (untransfected CHO cells)
O=C1[C@H](CC[C@H](O)c2ccc(F)cc2)[C@@H](c2ccc(O)cc2)N1c1ccc(F)cc1 [ezetimibe] | inhibited | 16.2±0.6% | 16.1±0.3% |  |  |  | 
N-(4,4-difluoro-5.7-dimethyl-4-bora-3a.4a-diaza-s-indacene-3-vl)methyl iodoacetamide/ezetimibe [BODIPY-ezetimibe] |  |  |  | No staining | No staining | detected | No staining
